One series relates to vitamin D-deficient rats. Briefly: Serum calcium in vitamin D-deficient hyperparathyroid rats, dosing thrice weekly for nearly four weeks. It counts as in vivo, Sprague-Dawley rats. The protocol: Oral Formulations. Cinacalcet was weighed and mixed with ethanol (at least 21 mcL ethanol/mg cinacalcet) for approximately 10 minutes. After a clear solution was produced, the clear solution was mixed with an ethanolic solution of 2MD or vitamin D analog as a control. The two ethanolic solutions were mixed (approx. 15 min.) with Neobee oil so that there was no more than 14.1% of ethanol in the final dosing solution. Doses were delivered in a 0.75 mL/kg dose volume.
Intravenous Formulations. Etelcalcitide was weighed and mixed with propylene glycol (up to 5 mg etelcalcitide/ml propylene glycol) for approximately 1 minute. After a clear solution was produced ([…]), the clear solution was mixed with an ethanolic solution of 2MD or vitamin D analog as a control (no more than ˜0.6% ethanol in the final solution) for approximately 1 min. Doses were delivered in a 1 mL/kg dose volume.
Sprague-Dawley rats were made vitamin D-deficient and then placed on a high containing lactose (10%) and elevated levels of calcium (2%) and phosphorus (1.25%). After hyperparathyroidism was established in the rats, animals were administered cinacalcet or etelcalcitide, 2MD or the combination of the two thrice weekly for nearly four weeks. Blood was collected 48-72 hours after the last dose was given and PTH (Immutopics Intact PTH kit) and serum calcium (Perkin Elmer) measured. […]

Series [1] deals with MRL/MpJ-FAS^1pr (MRL/lpr) mouse model of systemic lupus erythematosus. As to conditions: calcitriol administered through the diet; cited from earlier work.

Here are results for three molecules from patent US20180055856A1, “COMBINATION OF LOW DOSE 2-METHYLENE-19-NOR-(20S)-1ALPHA, 25-DIHYDROXYVITAMIN D3 AND CALCIMIMETICS TO TREAT SECONDARY HYPERPARATHYROIDISM” (Wisconsin Alumni Research Foundation, priority 2016, published 2018).

With `C=C1[C@H](O)CC(=C/C=C2\CCC[C@@]3(C)C2CCC3[C@@H](C)CCCC(C)(C)O)C[C@H]1O` (stereo partly drawn) [2MD, 2-methylene-19-nor-(20S)-1α,25-dihydroxyvitamin D3], in the series with vitamin D-deficient rats (1 ng 2MD/kg bw), the “serum calcium, 2MD alone” value is “unaffected”. As for `C=C1/C(=C\C=C2/CCC[C@]3(C)[C@@H]([C@H](C)CCCC(C)(C)O)CC[C@@H]23)C[C@@H](O)C[C@@H]1O` [calcitriol, 1α,25-(OH)2D3], in series [1], the hypercalcemia accompanying treatment result is on record as “severe hypercalcemia always accompanied this treatment” and the proteinuria result is “completely prevents proteinuria”. As for `C[C@@H](NCCCc1cccc(C(F)(F)F)c1)c1cccc2ccccc12` [cinacalcet, (R)—N-[1-(1-naphthyl)ethyl]-3-[3-(trifluoromethyl)phenyl] propan-1-amine], the “decrease of serum calcium, cinacalcet alone” value in the series with vitamin D-deficient rats (cinacalcet alone) is recorded as 0.5 mg%.
